Source: patent US20160176867A1, “MODIFIED BET-PROTEIN-INHIBITING DIHYDROQUINOXALINONES AND DIHYDROPYRIDOPYRAZINONES” (BAYER PHARMA AKTIENGESELLSCHAFT, priority 2013, published 2016)

How the values were obtained:
[1] = target: T1, BRD4 bromo domain 2 [BRD4(2)] (Homo sapiens, UniProt O60885); assay: BRD4/acetylated peptide H4 binding assay (TR-FRET), BRD4 bromo domain 2; conditions: inhibition of BRD4(2)/Ac-H4 peptide interaction
T1 construct: N-terminally His6-tagged BRD4(2) (amino acids 357-445); made in house; host or cells: E. coli
Summary of the method: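 IC50 comes from a 4-parameter fit over 0.1 nM–20 μM in duplicate, normalised to DMSO and no-protein controls. TR-FRET (Eu-streptavidin/anti-His-XL665) tracks His-tagged BRD4(2) 357-445 at 100 nM binding Ac-H4 peptide in HEPES pH 7.5 buffer. Incubation was 1 h at 22 °C, then at 4 °C ≥3 h up to overnight.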

MOLM-13 cells = assay: Cell proliferation assay (alamarBlue), MOLM-13; assay type: cell-based; conditions: Homo sapiens; MOLM-13 (acute myeloid leukaemia), 96 hours
Description: (§1) In accordance with the invention, the ability of the substances to inhibit cell proliferation was determined. Cell viability was determined by means of the alamarBlue® reagent (Invitrogen) in a Victor X3 Multilabel Reader (Perkin Elmer). The excitation wavelength was 530 nm and the emission wavelength […].
The MOLM-13 cells (DSMZ, ACC 554) were sown at a concentration of 4000 cells/well in 100 μl of growth medium (RPMI1640, 10% FCS) on 96-well microtitre plates.
(§2) After overnight incubation at 37° C., the fluorescence values were determined (CI values). Then the plates were treated with various substance dilutions (1E-5 M, 3E-6 M, 1E-6 M, 3E-7 M, 1E-7 M, 3E-8 M, 1E-8 M) and incubated at 37° C. over 96 hours (MOLM-13, B16F10, CHL-1 cells) or 120 hours (MOLP-8 cells). Subsequently, the fluorescence values were determined (CO values). For the data analysis, the CI values were subtracted from the CO values and the results were compared between cells which had been treated with various dilutions of the substance or only with buffer solution. The IC50 values (substance concentration needed for 50% inhibition of cell proliferation) were calculated therefrom.

MOLP-8 cells = assay: Cell proliferation assay (alamarBlue), MOLP-8; assay type: cell-based; conditions: Homo sapiens; MOLP-8 (multiple myeloma), 120 hours
Description: as §1
The MOLP-8 cells (DSMZ, ACC 569) were sown at a concentration of 4000 cells/well in 100 μl of growth medium (RPMI1640, 20% FCS) on 96-well microtitre plates.
as §2

CHL-1 cells = assay: Cell proliferation assay (alamarBlue), CHL-1; assay type: cell-based; conditions: Homo sapiens; CHL-1 (melanoma, BRAF wild-type), 96 hours
Description: as §1
The CHL-1 cells (ATCC, CRL-9446) were sown at a concentration of 1000 cells/well in 100 μl of growth medium (DMEM with glutamine, 10% FCS) on 96-well microtitre plates.
as §2

Compound	IC50 [1]	IC50 (MOLM-13 cells)	IC50 (MOLP-8 cells)	IC50 (CHL-1 cells)
C[C@@H]1C(=O)N(C)c2ccc(Nc3cccc(C(=O)N4CCN(C)CC4)c3)nc2N1Cc1ccccc1 [Example 75]	79 nM	197 nM	133 nM	125 nM
CNS(=O)(=O)c1cccc(Nc2ccc3c(n2)N(C2CCOCC2)[C@H](C)C(=O)N3C)c1 [Example 39, 3-{[(3R)-1,3-dimethyl-2-oxo-4-(tetrahydro-2H-pyran-4-yl)-1,2,3,4-tetrahydropyrido[2,3-b]pyrazin-6-yl]amino}-N-methylbenzenesulphon-amide]	135 nM	90 nM	91 nM	63 nM
C[C@@H]1C(=O)N(C)c2ccc(Nc3cccc(S(=O)(=O)N(C)C)c3)cc2N1C1CCNCC1 [Example 129, 3-{[(3R)-1,3-dimethyl-2-oxo-4-(piperidin-4-yl)-1,2,3,4-tetrahydroquinoxalin-6-yl]amino}-N,N-dimethylbenzenesulphon-amide]	97 nM	536 nM	567 nM	945 nM
C[C@@H]1C(=O)N(C)c2ccc(Nc3cccc(C(=O)N(C)C)c3)cc2N1C1CCNCC1 [Example 133, 3-{[(3R)-1,3-dimethyl-2-oxo-4-(piperidin-4-yl)-1,2,3,4-tetrahydroquinoxalin-6-yl]amino}-N,N-dimethylbenzamide]	990 nM	> 10000 nM	2010 nM	> 10000 nM
C[C@@H]1C(=O)N(C)c2ccc(Nc3cccc(S(=O)(=O)N[C@H]4CC[C@H](N5CCN(CC6CC6)CC5)CC4)c3)nc2N1C1CCNCC1 [Example 127, N-{trans-4-[4-(cyclopropylmethyl)piperazin-1-yl]cyclohexyl}-3-{[(3R)-1,3-dimethyl-2-oxo-4-(piperidin-4-yl)-1,2,3,4-tetrahydropyrido[2,3-b]pyrazin-6-yl]amino}-benzenesulphonamide]	90 nM	> 10000 nM	> 10000 nM	> 20000 nM
C[C@@H]1C(=O)N(C)c2ccc(Nc3cccc(S(=O)(=O)NCCN(C)C)c3)nc2N1C1CCN(C(=O)OC(C)(C)C)CC1 [Example 59, tert-butyl 4-[(3R)-6-[(3-{[2-(dimethylamino)ethyl]-sulphamoyl}phenyl)amino]-1,3-dimethyl-2-oxo-2,3-dihydropyrido[2,3-b]pyrazin-4(1H)-yl]piperidine-1-carboxylate]	77 nM	516 nM	297 nM	204 nM
CC(C)N1c2nc(Nc3cccc(C(=O)N4CCN(CC5CC5)CC4)c3)ccc2N(C)C(=O)[C@H]1C [Example 88, (3R)-6-[(3-{[4-(cyclo-propylmethyl)piperazin-1-yl]carbonyl}phenyl)amino]-4-isopropyl-1,3-dimethyl-3,4-dihydropyrido[2,3-b]pyrazin-2(1H)-one]	177 nM	2080 nM	876 nM	–
CC(C)N1c2nc(Nc3cccc(S(=O)(=O)N[C@H]4CC[C@H](N5CCN(CC6CC6)CC5)CC4)c3)ccc2N(C)C(=O)[C@H]1C [Example 34, N-{trans-4-[4-(cyclopropylmethyl)piperazin-1-yl]cyclohexyl}-3-{[(3R)-4-isopropyl-1,3-dimethyl-2-oxo-1,2,3,4-tetrahydropyrido[2,3-b]pyrazin-6-yl]amino}-benzenesulphonamide]	125 nM	55 nM	20 nM	–
CC(C)N1c2nc(Nc3cccc(S(=O)(=O)NCCN(C)C)c3)ccc2N(C)C(=O)[C@H]1C [Example 55, N-[2-(dimethylamino)-ethyl]-3-{[(3R)-4-isopropyl-1,3-dimethyl-2-oxo-1,2,3,4-tetrahydro-pyrido[2,3-b]pyrazin-6-yl]amino}benzene-sulphonamide]	149 nM	78 nM	48 nM	–
CC(C)N1c2nc(Nc3cccc(C(=O)N4CCN(C)CC4)c3)ccc2N(C)C(=O)[C@H]1C [Example 77, (3R)-4-isopropl-1,3-dimethyl-6-({3-[(4-methylpiperazin-1-yl)carbonyl]phenyl}-amino)-3,4-dihydro-pyrido[2,3-b]pyrazin-2(1H)-one]	118 nM	1010 nM	494 nM	–

These reach a lower IC50 [1]. Values come first.

IC50 [1]	IC50 (MOLM-13 cells)	Compound	IC50 (MOLP-8 cells)	IC50 (CHL-1 cells)
69 nM	45 nM	COc1ccc(S(=O)(=O)N2CCN(C)CC2)cc1Nc1ccc2c(n1)N(C1CCN(C)CC1)[C@H](C)C(=O)N2C [Example 46, (3R)-6-({2-methoxy-5-[(4-methylpiperazin-1-yl)sulphonyl]phenyl}-amino)-1,3-dimethyl-4-(1-methylpiperidin-4-yl)-3,4-dihydropyrido[2,3-b]pyrazin-2(1H)-one]	33 nM	64 nM
58 nM	152 nM	COc1ccc(S(=O)(=O)N2CC3(COC3)C2)cc1Nc1ccc2c(n1)N(C1CCOCC1)[C@H](C)C(=O)N2C [Example 30, (3R)-6-{[2-Methoxy-5-(2-oxa-6-azaspiro[3.3]hept-6-ylsulphonyl)phenyl]amino}-1,3-dimethyl-4-(tetrahydro-2H-pyran-4-yl)-3,4-dihydropyrido[2,3-b]pyrazin-2(1H)-one]	96 nM	80 nM
55 nM	20 nM	C[C@@H]1C(=O)N(C)c2ccc(Nc3cccc(S(=O)(=O)N4CCCC4)c3)nc2N1C1CCN(C)CC1 [Example 24, (3R)-1,3-Dimethyl-4-(1-methylpiperidin-4-yl)-6-{[3-(pyrrolidin-1-ylsulphonyl)phenyl]amino}-3,4-dihydropyrido[2,3-b]pyrazin-2(1H)-one]	11 nM	13 nM
40 nM	41 nM	C[C@@H]1C(=O)N(C)c2ccc(Nc3cccc(S(=O)(=O)N4CCCC4)c3)nc2N1C1CCOCC1 [Example 27, (3R)-1,3-Dimethyl-6-{[3-(pyrrolidin-1-ylsulphonyl)phenyl]amino}-4-(tetrahydro-2H-pyran-4-yl)-3,4-dihydropyrido[2,3-b]pyrazin-2(1H)-one]	30 nM	23 nM
44 nM	383 nM	C[C@@H]1C(=O)N(C)c2ccc(Nc3cccc(S(=O)(=O)N4CCN(C)CC4)c3)nc2N1C1CCNCC1 [Example 125, (3R)-1,3-dimethyl-6-({3-[(4-methylpiperazin-1-yl)sulphonyl]phenyl}amino)-4-(piperidin-4-yl)-3,4-dihydropyrido[2,3-b]pyrazin-2(1H)-one]	719 nM	2260 nM
46 nM	> 20000 nM	C[C@@H]1C(=O)N(C)c2ccc(Nc3cccc(S(=O)(=O)NC4CCN(C)CC4)c3)nc2N1C1CCNCC1 [Example 124, 3-{[(3R)-1,3-dimethyl-2-oxo-4-(piperidin-4-yl)-1,2,3,4-tetrahydropyrido[2,3-b]pyrazin-6-yl]amino}-N-(1-methylpiperidin-4-yl)benzenesulphonamide]	> 20000 nM	> 20000 nM
52 nM	175 nM	C[C@@H]1C(=O)N(C)c2ccc(Nc3cccc(S(=O)(=O)NC4CCN(C)CC4)c3)nc2N1C1CCOCC1 [Example 20, 3-{[(3R)-1,3-Dimethyl-2-oxo-4-(tetrahydro-2H-pyran-4-yl)-1,2,3,4-tetrahydropyrido[2,3-b]pyrazin-6-yl]amino}-N-(1-methylpiperidin-4-yl)benzenesulphonamide]	190 nM	–
62 nM	233 nM	COc1ccc(CN2c3cc(Nc4cccc(S(=O)(=O)N(C)C)c4)ccc3N(C)C(=O)[C@H]2C)cc1 [Example 10, 3-{[(3R)-4-(4-Methoxybenzyl)-1,3-dimethyl-2-oxo-1,2,3,4-tetrahydroquinoxalin-6-yl]amino}-N,N-dimethylbenzenesulphonamide]	82 nM	–
32 nM	53 nM	C[C@@H]1C(=O)N(C)c2ccc(Nc3cccc(S(=O)(=O)N(C)C)c3)nc2N1C1CCOCC1 [Example 6, 3-{[(3R)-1,3-Dimethyl-2-oxo-4-(tetrahydro-2H-pyran-4-yl)-1,2,3,4-tetrahydropyrido[2,3-b]pyrazin-6-yl]amino}-N,N-dimethylbenzenesulphonamide]	37 nM	–
54 nM	66 nM	C[C@@H]1C(=O)N(C)c2ccc(Nc3cccc(S(=O)(=O)N4CCOCC4)c3)nc2N1C1CCOCC1 [Example 9, (3R)-1,3-Dimethyl-6-{[3-(morpholin-4-ylsulphonyl)phenyl]amino}-4-(tetrahydro-2H-pyran-4-yl)-3,4-dihydropyrido[2,3-b]pyrazin-2(1H)-one]	40 nM	–
